From US10633375B2, “Oxopicolinamide derivative, preparation method therefor and pharmaceutical use thereof” (Jiangsu Hengrui Medicine Co., Ltd., priority 2016, dated 2020)
Values belong to the compound of their own block, whether it stands above or below them.

Legend:
[1] = Pharmacokinetics assay in rats after intragastrical administration; assay type: in vivo, Sprague-Dawley (SD) rats; settings: SD rats, intragastric, 2 mg/kg; for AUC / Cmax / Vd/F / CL/F / half-life / MRT: both sexes, Sprague-Dawley, rat, plasma, po; for AUC: read-out: Area Under Curve AUC; for Cmax: read-out: Plasma Concentration Cmax; for Vd/F: read-out: Apparent Distribution Volume Vz/F; for CL/F: read-out: Clearance CLz/F; for half-life: read-out: Half-Life T½ (converted); for MRT: read-out: Mean Residence Time MRT
Source text: Test Example 3. Pharmacokinetics Assay of the Compounds of the Present Invention
Rats were used as test animals. […] The pharmacokinetic behavior of the compounds of the present invention was studied and evaluated in rats.
56 healthy adult Sprague-Dawley (SD) rats, half male and half female, were purchased from SINO-BRITSH SIPPR/BK LAB. ANIMAL LTD., CO, with License No.: SCXK (Shanghai) 2008-0016.
2.3 Preparation of the Test Compounds
A certain amount of the test compound was weighed, and added with 5% by volume of DMSO, 5% by volume of Tween 80 and 90% normal saline to prepare a 0.2 mg/mL colorless, clear and transparent solution.
After an overnight fast, SD rats were intragastrically administered at a dose of 2.0 mg/kg and an administration volume of 10.0 mL/kg.
Blood (0.2 mL) was taken from the orbital sinus before administration and at 0.5, 1.0, 2.0, 4.0, 6.0, 8.0, 11.0 and 24.0 hours after administration. The samples were stored in heparin anticoagulation tubes, and centrifuged for 10 minutes at 3500 rpm at 4° C. to separate the blood plasma. The plasma samples were stored at −20° C. The rats were fed 2 hours after administration.
The content of the test compound in the plasma of rats after intragastric administration of different concentrations of the drug was determined: 25 μL of rat plasma at each time after administration was taken and added with 30 μL (100 ng/mL) of the internal standard solution of camptothecin and 200 μL of acetonitrile, shaken vertically for 5 minutes, and centrifuged for 10 minutes (4000 rpm). 3.0 μL of the supernatant was taken from the plasma samples for LC/MS/MS analysis.
4. Results of Pharmacokinetic Parameters
Pharmacokinetic parameters of the compounds of the present invention in rats are shown below.

[2] = tested on: human blood; assay: In vitro anticoagulant effect on human blood (APTT, CT2); settings: concentration corresponding to 2 times the APTT of the blank control, human plasma
Method: Test Example 2: Determination of In Vitro Anticoagulant Effect of the Compounds of the Present Invention on Human Blood
(§1) 1. Experimental Materials
Plasma: Human blood was collected in blood collection tubes containing no anticoagulant, and then 3.8% sodium citrate (volume ratio 1:9) was added. The tubes were centrifuged at 2500 rpm for 10 minutes at room temperature, and then the plasma was collected and stored at −80° C.;
Reagents: APTT reagent (Activated partial thromboplastin time assay kit, SIEMENS, Art. No. B4218-1), calcium chloride solution;
Instrument: Coagulation instrument (SYSMEX, CA-500).
The divided plasma was melted at room temperature and mixed well. 10000 μM the test compound dissolved in 100% DMSO was diluted to 3000, 300, 200, 150, 75, 30, 10, 3, 0.3 μM with 100% DMSO, and the blank was 100% DMSO. The reagent, plasma, and compound were placed in corresponding positions in the coagulation instrument, and APTT detection of the compound was carried out.
Curve fitting was carried out by graphpad and CT2 was calculated, i.e., the concentration of the compound corresponding to 2 times the APTT of the blank control.

[3] = target: Coagulation Factor XIa protease (Homo sapiens (Human), UniProt P03951); assay: Inhibition of Factor XIa detected by absorption photometry; assay type: biochemical; settings: absorbance at 405 nm, 10 minutes at 37° C.
Method: Test Example 1: Biological Activity of the Compounds of the Present Invention on
The Inhibition of Factor XIa Detected by Absorption Photometry
as §1
Enzyme: Coagulation Factor XIa protease (Abcam, Art. No ab62411)
Substrate: Coagulation Factor XIa specific substrate (HYPHEN1310 med, Art. No. Biophen cs-21(66))
2. Experimental Procedure
20 mM of test compound dissolved in 100% DMSO was diluted to 200, 20, 2, 0.2, 0.02, 0.002 μM with 100% DMSO; 1 μl of the compound was added to each well in a 384-well plate, blank and control wells were replaced with DMSO. The plate was centrifuged to remove the compound to the bottom. 10 μl (2.5 μg/ml) of FXIa enzyme solution was added to each well, and 10 μl of buffer was added to the blank well. The plate was centrifuged to remove the enzyme solution to the bottom.
Finally, 10 μl of 2 mM substrate were added to each well, and the plate was centrifuged to remove the substrate solution to the bottom.
The plate was incubated for 10 minutes at 37° C.; and then the absorbance was measured at 405 nm.

Chain of Coagulation Factor XIa protease (P03951 388-625): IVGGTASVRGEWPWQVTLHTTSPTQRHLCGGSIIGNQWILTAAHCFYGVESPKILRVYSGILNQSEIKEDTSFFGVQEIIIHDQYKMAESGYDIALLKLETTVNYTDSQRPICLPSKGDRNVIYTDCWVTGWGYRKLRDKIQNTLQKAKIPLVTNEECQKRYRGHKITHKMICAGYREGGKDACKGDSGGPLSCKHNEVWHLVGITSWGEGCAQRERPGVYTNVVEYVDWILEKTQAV
Chain of Coagulation Factor XIa protease (P03951 19-387 partner): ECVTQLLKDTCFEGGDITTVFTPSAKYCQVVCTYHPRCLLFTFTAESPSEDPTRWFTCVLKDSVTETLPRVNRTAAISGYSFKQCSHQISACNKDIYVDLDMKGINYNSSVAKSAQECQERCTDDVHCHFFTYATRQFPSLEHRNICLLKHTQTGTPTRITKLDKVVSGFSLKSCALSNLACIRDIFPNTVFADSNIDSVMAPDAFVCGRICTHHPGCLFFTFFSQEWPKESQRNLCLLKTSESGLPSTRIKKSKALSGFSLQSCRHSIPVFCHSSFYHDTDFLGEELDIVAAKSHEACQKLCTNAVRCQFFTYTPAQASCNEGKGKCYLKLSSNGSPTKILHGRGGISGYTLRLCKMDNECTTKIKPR

AUC [1]: 7.27 ± 3.37 ng·h/mL
Cmax [1]: 7.02 ± 2.97 ng/mL
Compound: COc1cn([C@@H](Cc2ccncc2)C(=O)Nc2ccc(C(=O)O)cc2)c(=O)cc1-c1cc(Cl)ccc1C#N [Comparative Example 1, (S)-4-(2-(4-(5-chloro-2-cyanophenyl)-5-methoxy-2-oxopyridin-1(21)-yl)-3-(pyridin-4-yl)propanamido)benzoic acid, reference compound]

Compound: COc1cn([C@@H](CCOC(C)(C)C)C(=O)Nc2ccc3nccnc3c2)c(=O)cc1-c1cc(Cl)ccc1-c1nc(C)no1 [Comparative Example 2, (S)-4-(tert-butoxy)-2-(4-(5-chloro-2-(3-methyl-1,2,4-oxadiazol-5-yl)phenyl)-5-methoxy-2-oxopyridin-1 (2H)-yl)-N-(quinoxalin-6-yl)butanamide, reference compound]
CT2, concentration doubling APTT ([2]; Table 3 comparison): 13.1 µM

Compound: COc1cn([C@H](Cc2ccccc2)C(=O)Nc2ccc(C(=O)O)cc2)c(=O)cc1-c1cc(Cl)ccc1C(C)=O [Example 6, (R)-4-(2-(4-(2-acetyl-5-chlorophenyl)-5-methoxy-2-oxopyridin-1(2H)-yl)-3-phenylpropanamido)benzoic acid]
CT2, concentration doubling APTT ([2]; Table 2): >10000 µM

Vd/F [1]: 45.4 ± 16.5 L/kg
AUC [1]: 382 ± 98 ng·h/mL
CL/F [1]: 92.5 ± 28.3 mL/min/kg
half-life [1]: 6.06 ± 2.99 h
MRT [1]: 5 ± 2.57 h
Cmax [1]: 167 ± 45 ng/mL
IC50 [3]: 90 nM
Compound: COc1cn(C(Cc2ccccc2)C(=O)Nc2ccc(C(=O)O)cc2F)c(=O)cc1-c1cc(Cl)ccc1C(C)=O (stereo not shown) [Example 29, 4-(2-(4-(2-acetyl-5-chlorophenyl)-5-methoxy-2-oxopyridin-1 (2H)-yl)-3-phenylpropanamido)-3-fluorobenzoic acid]

AUC difference, Example 84 versus Comparative Example 1 [1]: 7.5 times
Cmax difference, Example 84 versus Comparative Example 1 [1]: 6.9 times
Vd/F [1]: 37.9 ± 8.23 L/kg
AUC [1]: 54.6 ± 19.1 ng·h/mL
CL/F [1]: 673 ± 235 mL/min/kg
half-life [1]: 0.68 ± 0.14 h
MRT [1]: 1.2 ± 0.2 h
Cmax [1]: 48.8 ± 8.8 ng/mL
IC50 [3]: 42 nM
Compound: COc1cn([C@@H](Cc2cccnc2)C(=O)Nc2ccc(C(=O)O)cc2)c(=O)cc1-c1cc(Cl)ccc1C(C)=O [Example 84, (S)-4-(2-(4-(2-acetyl-5-chlorophenyl)-5-methoxy-2-oxopyridin-1(2H)-yl)-3-(pyridin-3-yl)propanamido)benzoic acid]

Compound: CCC(=O)c1ccc(Cl)cc1-c1cc(=O)n(C(Cc2ccn(C3CC3)n2)C(=O)Nc2ccc(C(=O)O)cc2)cc1OC (stereo not shown) [Example 91, 4-(2-(4-(5-chloro-2-propionylphenyl)-5-methoxy-2-oxopyridin-1 (2H)-yl)-3-(1-cyclopropyl-1H-pyrazol-3-yl)propanamido)benzoic acid]
CT2, concentration doubling APTT ([2]; Table 2): 2.1 µM

IC50 [3]: 37 nM
Compound: COCCC(C(=O)Nc1ccc(C(=O)O)cc1)n1cc(OC)c(-c2c(C(C)=O)ccc(Cl)c2F)cc1=O (stereo not shown) [Example 146, 4-(2-(4-(6-acetyl-3-chloro-2-fluorophenyl)-5-methoxy-2-oxopyridin-1(21)-yl)-4-methoxvbutanamido)benzoic acid]

IC50 [3]: 56 nM
Compound: COCCC(C(=O)Nc1ccc(C(=O)O)cc1)n1cc(OC)c(-c2cc(Cl)ccc2C(C)=O)cc1=O (stereo not shown) [Example 147, 4-(2-(4-(2-acetyl-5-chlorophenyl)-5-methoxy-2-oxopyridin-1(2H)-yl)-4-methoxybutanamido)benzoic acid]

IC50 [3]: 81 nM
Compound: CCCCC(C(=O)Nc1ccc(C(=O)O)cc1)n1cc(OC)c(-c2cc(Cl)ccc2C(C)=O)cc1=O (stereo not shown) [Example 155, 4-(2-(4-(2-acetyl-5-chlorophenyl)-5-methoxy-2-oxopyridin-1(2H)-yl)hexanamido)benzoic acid]

IC50 [3]: 46 nM
Compound: COc1cn(C(CC2(C)CC2)C(=O)Nc2ccc(C(=O)O)cc2)c(=O)cc1-c1cc(Cl)ccc1C(C)=O (stereo not shown) [Example 158, 4-(2-(4-(2-acetyl-5-chlorophenyl)-5-methoxy-2-oxopyridin-1(2H)-yl)-3-(1-methylcyclopropyl)propanamido)benzoic acid]

IC50 [3]: 33 nM
Compound: COc1cn(C(CC2CCC2)C(=O)Nc2ccc(C(=O)O)cc2)c(=O)cc1-c1c(C(C)=O)ccc(Cl)c1F (stereo not shown) [Example 159, 4-(2-(4-(6-acetyl-3-chloro-2-fluorophenyl)-5-methoxy-2-oxopyridin-1(2H)-yl)-3-cyclobutylpropanamido)benzoic acid]

IC50 [3]: 13100 nM
Compound: COc1cn([C@@H](CC2CCC2)C(=O)Nc2ccc(C(=O)O)cc2)c(=O)cc1-c1c(C(C)=O)ccc(Cl)c1F [Example 161, (S)-4-(2-(4-(6-acetyl-3-chloro-2-fluorophenyl)-5-methoxy-2-oxopyridin-1(2H)-yl)-3-cyclobutylpropanamido)benzoic acid]

Compound: COc1cn(C(CCOC2CCC2)C(=O)Nc2ccc(C(=O)O)cc2)c(=O)cc1-c1cc(Cl)ccc1C(C)=O (stereo not shown) [Example 162, 4-(2-(4-(2-acetyl-5-chlorophenyl)-5-methoxy-2-oxopyridin-1(2H)-yl)-4-cyclobutoxybutanamido)benzoic acid]
IC50 [3]: 35 nM

IC50 [3]: 92 nM
Compound: COc1cn(C(CC2CC2)C(=O)Nc2ccc(C(=O)O)cc2)c(=O)cc1-c1cc(Cl)ccc1C(C)=O (stereo not shown) [Example 167, 4-(2-(4-(2-acetyl-5-chlorophenyl)-5-methoxy-2-oxopyridin-1(2H)-yl)-3-cyclopropylpropanamido)benzoic acid]

IC50 [3]: 43 nM
Compound: COc1cn([C@@H](CC2CC2)C(=O)Nc2ccc(C(=O)O)cc2)c(=O)cc1-c1cc(Cl)ccc1C(C)=O [Example 168, (S)-4-(2-(4-(2-acetyl-5-chlorophenyl)-5-methoxy-2-oxopyridin-1(2H)-yl)-3-cyclopropylpropanamido)benzoic acid]

Vd/F [1]: 6.24 ± 2.15 L/kg
AUC [1]: 701 ± 175 ng·h/mL
CL/F [1]: 49.9 ± 12.5 mL/min/kg
half-life [1]: 1.45 ± 0.32 h
MRT [1]: 1.71 ± 0.32 h
Cmax [1]: 462 ± 116 ng/mL
IC50 [3]: 35 nM
Compound: COc1cn([C@@H](CC2CCC2)C(=O)Nc2ccc(C(=O)O)cc2)c(=O)cc1-c1cc(Cl)ccc1C(C)=O [Example 171, (S)-4-(2-(4-(2-acetyl-5-chlorophenyl)-5-methoxy-2-oxopyridin-1(2H)-yl)-3-cyclobutylpropanamido)benzoic acid]

IC50 [3]: 8920 nM
Compound: COc1cn([C@H](CC2CCC2)C(=O)Nc2ccc(C(=O)O)cc2)c(=O)cc1-c1cc(Cl)ccc1C(C)=O [Example 172, (R)-4-(2-(4-(2-acetyl-5-chlorophenyl)-5-methoxy-2-oxopyridin-1(2H)-yl)-3-cyclobutylpropanamido)benzoic acid]

IC50 [3]: 100 nM
Compound: COc1cn(C(CC2CC(C)(C)C2)C(=O)Nc2ccc(C(=O)O)cc2)c(=O)cc1-c1cc(Cl)ccc1C(C)=O (stereo not shown) [Example 173, 4-(2-(4-(2-acetyl-5-chlorophenyl)-5-methoxy-2-oxopyridin-1(2H)-yl)-3-(3,3-dimethylcyclobutyl)propanamido)benzoic acid]

IC50 [3]: 71 nM
Compound: COc1cn(C(CC2CCCCO2)C(=O)Nc2ccc(C(=O)O)cc2)c(=O)cc1-c1cc(Cl)ccc1C(C)=O (stereo not shown) [Example 176]
